US20190328691A1, “ANTIBIOTIC THERAPY” (Boulos & Cooper Pharmaceuticals Pty Ltd, priority 2015, published 2019)
Values joined by “and” are separate entries in the source; they are usually repeats but may differ in a detail not shown here. Equal entries are not always repeated. Where two headings read alike, the source gives them in different places. One block for each compound: values may come before it.

How the values were obtained:
[1] = system: Staphylococcus aureus (ATCC 29213); assay: Checkerboard combination / MIC assay with S. aureus ATCC 29213; assay type: cell-based; conditions: S. aureus ATCC 29213; for MIC: Staphylococcus aureus, read-out: MIC of antibiotic alone
Method: (§1) Colonies were suspended in PBS. The absorbance of each suspension was measured with a spectrophotometer, and then the suspension was adjusted to 1×10^6 CFU/mL. The testing inoculum was prepared within 20 minutes before adding to wells of the test plate. Final cellular density in the checkerboard assays was 5×10^5 CFU/mL.
(§2) The combination effect of antibacterial substances administered together was evaluated by an in vitro checkerboard combination method with Staphylococcus aureus (ATCC 29213) and Staphylococcus aureus (BAA-1717). Ramizol and Chlopam were tested alone in 11 points by two-fold serial titration and in combination with different commercial antibiotics which were tested in a 7-point titration alone and in combination with Ramizol and Chlopam using the checkerboard technique as recommended by the Clinical & Laboratory Standards Institute (CLSI. Methods for Dilution In Antimicrobial Susceptibility Tests for Bacteria That Grow Aerobically; Approved Standard-Eighth Edition. CLSI document M07-A8 (ISBN 1-56238-689-1). Vol. 29 No. 2. Clinical and Laboratory Standards Institute, USA, 2009). The commercial antibiotics were also tested alone. Twenty-four checkerboard tests were performed.
(§3) The starting concentration of Ramizol, Chlopam, and the commercial antibiotics was four fold of the MIC. The testing range for each combination was described in the following summary tables.
(§4) Compound dilutions of Ramizol and Chlopam were performed in 100% DMSO and the final DMSO concentration in all test wells was 2%. Growth control wells also included 2% DMSO. CLSI protocol was followed for medium, inoculum preparation, and endpoint reading. The commercial antibiotics were dissolved and diluted in the CLSI specified diluent. The final inoculum count for each strain was 5×10^5 CFU/mL.
Cefepime, Daptomycin, Linezolid, Mupirocin, Oxacillin and Vancomycin were also tested alone. Each test substance was dissolved and diluted in 100% DMSO or specified solvent. Each test substance dilution (2 μL) was added to 96 μL broth CAMHB. CAMHB seeded with S. aureus ATCC 29213 at 1×10^6 CFU/mL (100 μL) was then added to the plate to generate a final cell count at 5×10^5 CFU/mL.
(§5) Assay plates were incubated and MIC endpoints were read as described in the MIC assay. FIC (Fraction Inhibitory Concentration) and FIC Index (FICI) values for each test condition and the average of FICI values of all pairwise combinations were calculated to determine if synergy or antagonism existed between the two substances. The FIC index was determined by calculating the sum of the ratios of MICs for both substances. Arithmetically, the FIC Index of a combination of Substance 1 and Substance 2 was defined as following: FICI=Σ[FIC(Substance 1)+FIC(Substance 2)]=[(MIC of Substance 1 in combination/MIC of Substance 1 alone)+(MIC of Substance 2 in combination/MIC of Substance 2 alone)]. Synergy is defined as the FICI (Σ)≤0.5; additivity as FICI (Σ)>0.5 to ≤1; indifference as FICI (Σ)>1 to ≤4; antagonism is defined as the FICI (Σ)>4 (Zinner and Blaser, J. Journal of Antimicrobial Chemotherapy (1986), 17, 1-5; Amin, et al BMC Complementary & Alternative Medicine (2015), 15, 59; Zuo, et al. Molecules (2011), 16, 9819-9826).

[2] = system: Staphylococcus aureus (BAA-1717); assay: Checkerboard combination / MIC assay with S. aureus BAA-1717 (MRSA); assay type: cell-based; conditions: for MIC: Staphylococcus aureus, ATCC BAA-1717 / BAA-1717, read-out: MIC of antibiotic alone
Method: as §1, §2, §3, §4
Each test substance was dissolved and diluted in 100% DMSO or specified solvent. Each test substance dilution (2 μL) was added to 96 μL broth CAMHB. CAMHB seeded with S. aureus BAA-1717 at 1×10^6 CFU/mL (100 μL) was then added to the plate to generate a final cell count at 5×10^5 CFU/mL.
as §5

[3] = ATCC29213, Table 4, checkerboard series with Chlopam
[4] = ATCC29213, Table 7, checkerboard series with Ramizol

MIC [1, 3]: 0.5 µg/mL
MIC ([2]; Table 4, checkerboard series with Chlopam, S. aureus ATCC BAA-1717): 1 µg/mL
Compound: O=C(O)Cc1ccc(/C=C/c2cc(/C=C/c3ccc(CC(=O)O)cc3)cc(/C=C/c3ccc(CC(=O)O)cc3)c2)cc1 [Chlopam, 2,2′,2″-{[(1E,1′E,1″E)-benzene-1,3,5-triyltris(ethene-2,1-diyl)]tris(benzene-4,1-diyl)}triacetic acid]

Compound: Cc1onc(-c2ccccc2)c1C(=O)N[C@@H]1C(=O)N2[C@@H]1SC(C)(C)[C@@H]2C(=O)O [Oxacillin]
FICI of combination with Chlopam ([1]; Chlopam 0.003906 μg/mL + labelled antibiotic at MIC of same cell): 1.0
MIC of antibiotic in combination with Chlopam ([1]; Chlopam 0.003906 μg/mL): 0.5 µg/mL
FICI of combination with Chlopam ([1]; Chlopam 0.0078125 μg/mL + labelled antibiotic at MIC of same cell): 1.0
MIC of antibiotic in combination with Chlopam ([1]; Chlopam 0.0078125 μg/mL): 0.5 µg/mL
FICI of combination with Chlopam ([1]; Chlopam 0.015625 μg/mL + labelled antibiotic at MIC of same cell): 1.0
MIC of antibiotic in combination with Chlopam ([1]; Chlopam 0.015625 μg/mL): 0.5 µg/mL
FICI of combination with Chlopam ([1]; Chlopam 0.125 μg/mL + labelled antibiotic at MIC of same line): 0.5 and 0.8
MIC of antibiotic in combination with Chlopam ([1]; Chlopam 0.125 μg/mL): 0.125 µg/mL and 0.25 µg/mL
FICI of combination with Chlopam ([1]; Chlopam 0.25 μg/mL + labelled antibiotic at MIC of same cell): 0.8
MIC of antibiotic in combination with Chlopam ([1]; Chlopam 0.25 μg/mL): 0.125 µg/mL
FICI of combination with Chlopam ([1]; Chlopam 0.5 μg/mL + labelled antibiotic at MIC of same cell): 1.0
MIC of antibiotic in combination with Chlopam ([1]; Chlopam 0.5 μg/mL): 0.01563 µg/mL
Effect of individual antibiotic combinations of lower concentrations ([1]; Chlopam and Oxacillin: 0.0125 and 0.125 μg/mL): synergistic effect
FICI of combination with Ramizol ([1]; Ramizol 0.015625 μg/mL + labelled antibiotic at MIC of same cell): 1.0
MIC of antibiotic in combination with Ramizol ([1]; Ramizol 0.015625 μg/mL): 0.5 µg/mL
FICI of combination with Ramizol ([1]; Ramizol 0.03125 μg/mL + labelled antibiotic at MIC of same cell): 1.0
MIC of antibiotic in combination with Ramizol ([1]; Ramizol 0.03125 μg/mL): 0.5 µg/mL
FICI of combination with Ramizol ([1]; Ramizol 0.0625 μg/mL + labelled antibiotic at MIC of same cell): 1.0
MIC of antibiotic in combination with Ramizol ([1]; Ramizol 0.0625 μg/mL): 0.5 µg/mL
FICI of combination with Ramizol ([1]; Ramizol 0.125 μg/mL + labelled antibiotic at MIC of same cell): 1.0
MIC of antibiotic in combination with Ramizol ([1]; Ramizol 0.125 μg/mL): 0.5 µg/mL
FICI of combination with Ramizol ([1]; Ramizol 4 μg/mL + labelled antibiotic at MIC of same cell): 1.0
MIC of antibiotic in combination with Ramizol ([1]; Ramizol 4 μg/mL): 0.016 µg/mL
MIC [1, 3]: 0.5 µg/mL
MIC [1, 4]: 0.5 µg/mL
Effect of the combinations with Chlopam (by mean FICI) ([1]; labelled antibiotic + Chlopam): additive effect
mean FICI of combination with Chlopam ([1]; labelled antibiotic + Chlopam, mean of all pairwise combinations): 1.0
mean FICI of combination with Ramizol ([1]; labelled antibiotic + Ramizol, mean of all pairwise combinations): 1.2
FICI of combination with Chlopam ([2]; Chlopam 0.001953 μg/mL + labelled antibiotic at MIC of same cell, S. aureus ATCC BAA-1717): 1.0
FICI of combination with Chlopam ([2]; Chlopam 0.003906 μg/mL + labelled antibiotic at MIC of same cell, S. aureus ATCC BAA-1717): 1.0
FICI of combination with Chlopam ([2]; Chlopam 0.0078125 μg/mL + labelled antibiotic at MIC of same cell, S. aureus ATCC BAA-1717): 1.0
FICI of combination with Ramizol ([2]; Ramizol 0.015625 μg/mL + labelled antibiotic at MIC of same cell, S. aureus ATCC BAA-1717): 1.0
FICI of combination with Ramizol ([2]; Ramizol 0.03125 μg/mL + labelled antibiotic at MIC of same cell, S. aureus ATCC BAA-1717): 1.0
FICI of combination with Ramizol ([2]; Ramizol 0.0625 μg/mL + labelled antibiotic at MIC of same cell, S. aureus ATCC BAA-1717): 1.0
mean FICI of combination with Chlopam ([2]; labelled antibiotic + Chlopam, mean of all pairwise combinations, S. aureus ATCC BAA-1717): 1.2
Effect of the combinations with Ramizol (by mean FICI) ([2]; labelled antibiotic + Ramizol, S. aureus BAA-1717): additive effect
mean FICI of combination with Ramizol ([2]; labelled antibiotic + Ramizol, mean of all pairwise combinations, S. aureus ATCC BAA-1717): 0.9

MIC [1, 4]: 4 µg/mL
MIC ([2]; Table 7, checkerboard series with Ramizol, S. aureus ATCC BAA-1717): 4 µg/mL
Compound: O=C(O)c1ccc(/C=C/c2cc(/C=C/c3ccc(C(=O)O)cc3)cc(/C=C/c3ccc(C(=O)O)cc3)c2)cc1 [Ramizol, 1,3,5-Tris[(1E)-2′-(4″-benzoic acid)vinyl]benzene]
